Test results published in patent US20240166630A1, “INDOLE DERIVATIVES AS SEROTONERGIC AGENTS USEFUL FOR THE TREATMENT OF DISORDERS RELATED THERETO” (Mindset Pharma Inc., priority 2021, published 2024).

Tested on: male C57BL6 mice
Test: Mouse head-twitch response (HTR)
Type: in vivo
Conditions: mice pretreated with M100907 prior to compound
Procedure: Male, C57BL/6J mice (body weight range 20-30 g) were dosed with the appropriate dose of test article, and following a 1-minute pre-treatment time, placed in individual observation chambers. Animals were visually assessed for the incidence head twitches continuously over a 1 hr period. Head twitches were defined as a rapid jerk of the head which was not elicited by an external tactile stimulus (Come and Pickering, Psychopharmacologia, 1967, 11(1): 65-78). Each head twitch was individually counted by a trained observer, and the data expressed as the mean±SEM of 6-10 mice per group. Mice were used in a single experiment only.
Dose response (0.3-3 mg/kg SC) 5-HT2A signs of WDS/BMC measured over 1h. Also locomotor activity and other 5-HT receptor signs measured. For example, the effect on various doses of exemplary compound of Formula I-B, I-B-1, on head-twitch response (HTR) in male C57BL6 mice was studied. The mice were treated with exemplary compound I-B-1 (0.03-10 mg/kg) by SC route in a vehicle of 10% DMSO in Saline (2 drops HCl (0.1M)+1 drop Tween 80 were added), and the total number of head twitches were recorded over a one hour period. Data is expressed as mean±SEM (see, FIG. 1).

COc1cccc([C@H](O)C2CCN(CCc3ccc(F)cc3)CC2)c1OC [Compound M100907]
effect of pretreatment with 5-HT2AR antagonist on HTR induced by compounds of Formula I-B: completely blocked
